Experimental data reported in ChEMBL document CHEMBL5046257, “Synthesis and Evaluation of Bakuchiol Derivatives as Potent Anti-inflammatory Agents in Vitro and in Vivo” (J Nat Prod, 2022).
Activity calls are given as the source filed them. The calls are words filed in the database; no cut-off is given here.

Key:
[1] = Cytotoxicity against mouse RAW 264.7 cells assessed as decreased cell viability measured after 24 hrs by MTT assay; assay type: toxicity, cell-based, RAW264.7
Danio rerio [2] = species on record: Danio rerio; test: Antiinflammatory activity in zebrafish assessed as inhibition of LPS-induced NO production at 2.5 to 5 uM for 24 hrs by laser confocal microscope; assay type: functional, organism-based; conditions: dose 2.5-5 µM
RAW264.7 [3] = test: Antiinflammatory activity in mouse RAW 264.7 cells assessed as inhibition of LPS-induced NO production at 20 uM for 1 hrs pretreatment followed by LPS stimulation for 23 hrs by Griess reagent assay; assay type: functional, cell-based; conditions: time 24.0 hrs
Danio rerio [4] = species on record: Danio rerio; test: Antiinflammatory activity in zebrafish assessed as inhibition of LPS-induced ROS production at 2.5 to 5 uM for 24 hrs by laser confocal microscope; assay type: functional, organism-based; conditions: dose 2.5-5 µM
RAW264.7 [5] = test: Antiinflammatory activity against mouse RAW264.7 cells assessed as inhibition of LPS-induced COX2 expression at 10 uM for 1 hrs followed by LPS stimulation for 23 hrs by western blot analysis; assay type: functional, cell-based; conditions: time 24.0 hrs
RAW264.7 [6] = test: Antiinflammatory activity in mouse RAW264.7 cells assessed as upregulation of LPS-induced HO-1 expression at 5 to 10 uM for 1 hrs followed by LPS stimulation for 23 hrs by Western blot analysis; assay type: functional, cell-based; conditions: dose 5-10 µM, time 24.0 hrs
RAW264.7 [7] = test: Antiinflammatory activity in mouse RAW264.7 cells assessed as inhibition of LPS-induced IKKbeta phosphorylation at 5 to 10 uM for 1 hrs followed by LPS stimulation for 23 hrs by Western blot analysis; assay type: functional, cell-based; conditions: dose 5-10 µM, time 24.0 hrs
RAW264.7 [8] = test: Antiinflammatory activity in mouse RAW264.7 cells assessed as inhibition of LPS-induced NFkB p65 activation at 5 to 10 uM for 1 hrs followed by LPS stimulation for 23 hrs by Western blot analysis; assay type: functional, cell-based; conditions: dose 5-10 µM, time 24.0 hrs
RAW264.7 [9] = test: Antiinflammatory activity in mouse RAW 264.7 cells assessed as inhibition of LPS-induced TNF-alpha production at 5 to 10 uM for 1 hrs followed by LPS stimulation for 23 hrs by ELISA; assay type: functional, cell-based; conditions: dose 5-10 µM, time 24.0 hrs
RAW264.7 [10] = test: Antiinflammatory activity against mouse RAW264.7 cells assessed as inhibition of LPS-induced iNOS expression at 10 uM for 1 hrs followed by LPS stimulation for 23 hrs by western blot analysis; assay type: functional, cell-based; conditions: time 24.0 hrs
RAW264.7 [11] = test: Antiinflammatory activity in mouse RAW264.7 cells assessed as downregulation of LPS-induced JNK phosphorylation at 5 to 10 uM for 1 hrs followed by LPS stimulation for 23 hrs by Western blot analysis; assay type: functional, cell-based; conditions: dose 5-10 µM, time 24.0 hrs
RAW264.7 [12] = test: Antiinflammatory activity against mouse RAW264.7 cells assessed as inhibition of LPS-induced COX2 expression at 5 to 10 uM for 1 hrs followed by LPS stimulation for 23 hrs by western blot analysis; assay type: functional, cell-based; conditions: dose 5-10 µM, time 24.0 hrs
RAW264.7 [13] = test: Antiinflammatory activity in mouse RAW264.7 cells assessed as downregulation of LPS-induced MAPK phosphorylation at 5 to 10 uM for 1 hrs followed by LPS stimulation for 23 hrs by Western blot analysis; assay type: functional, cell-based; conditions: dose 5-10 µM, time 24.0 hrs
RAW264.7 [14] = test: Antiinflammatory activity in mouse RAW 264.7 cells assessed as inhibition of LPS-induced TNF-alpha production at 20 uM for 1 hrs followed by LPS stimulation for 23 hrs by ELISA; assay type: functional, cell-based; conditions: time 24.0 hrs
RAW264.7 [15] = test: Antiinflammatory activity in mouse RAW264.7 cells assessed as upregulation of LPS-induced NRF2 expression at 5 to 10 uM for 1 hrs followed by LPS stimulation for 23 hrs by Western blot analysis; assay type: functional, cell-based; conditions: dose 5-10 µM, time 24.0 hrs
RAW264.7 [16] = test: Antiinflammatory activity in mouse RAW 264.7 cells assessed as inhibition of LPS-induced IL-6 production at 5 to 10 uM for 1 hrs followed by LPS stimulation for 23 hrs by ELISA; assay type: functional, cell-based; conditions: dose 5-10 µM, time 24.0 hrs
RAW264.7 [17] = test: Antiinflammatory activity in mouse RAW264.7 cells assessed as inhibition of LPS-induced ROS production at 5 to 10 uM for 1 hrs followed by LPS stimulation for 23 hrs by DCFH-DA staining based fluorescence assay; assay type: functional, cell-based; conditions: dose 5-10 µM, time 24.0 hrs
RAW264.7 [18] = test: Antiinflammatory activity in mouse RAW264.7 cells assessed as downregulation of LPS-induced ERK phosphorylation at 5 to 10 uM for 1 hrs followed by LPS stimulation for 23 hrs by Western blot analysis; assay type: functional, cell-based; conditions: dose 5-10 µM, time 24.0 hrs
RAW264.7 [19] = test: Antiinflammatory activity against mouse RAW264.7 cells assessed as inhibition of LPS-induced iNOS expression at 5 to 10 uM for 1 hrs followed by LPS stimulation for 23 hrs by western blot analysis; assay type: functional, cell-based; conditions: dose 5-10 µM, time 24.0 hrs
RAW264.7 [20] = test: Antiinflammatory activity in mouse RAW 264.7 cells assessed as inhibition of LPS-induced IL-6 production at 20 uM for 1 hrs followed by LPS stimulation for 23 hrs by ELISA; assay type: functional, cell-based; conditions: time 24.0 hrs

| SMILES | IC50 at 24 h [1] | further results |
| --- | --- | --- |
| C=C[C@@](C)(/C=C/c1ccc(OCc2cn(Cc3ccc(F)cc3)nn2)cc1)CCC=C(C)C | 157 µM | – |
| C=C[C@@](C)(/C=C/c1ccc(OC(=O)c2cn(-c3ccc(Cl)cc3)nn2)cc1)CCC=C(C)C | 115 µM | – |
| C=C[C@@](C)(/C=C/c1ccc(OCC(=O)NC(c2ccccc2)P(=O)(OCC)OCC)cc1)CCC=C(C)C (stereo not given in full) | 33.4 µM | – |
| C=C[C@@](C)(/C=C/c1ccc(OCC(=O)Nc2ccc(F)cc2)cc1)CCC=C(C)C | 59.1 µM | – |
| C=C[C@@](C)(/C=C/c1ccc(OCc2cn(-c3ccc(C(F)(F)F)cc3)nn2)cc1)CCC=C(C)C | 82.1 µM | – |
| C=C[C@@](C)(/C=C/c1ccc(OCc2cn(Cc3ccc(C)cc3)nn2)cc1)CCC=C(C)C | 371 µM | – |
| C=C[C@@](C)(/C=C/c1ccc(OCc2cn(-c3ccccc3)nn2)cc1)CCC=C(C)C | 172 µM | – |
| C=C[C@@](C)(/C=C/c1ccc(OCc2cn(-c3ccc(C)cc3)nn2)cc1)CCC=C(C)C | 86.9 µM | – |
| C=C[C@@](C)(/C=C/c1ccc(OC(=O)c2cc3cc(OC)ccc3[nH]2)cc1)CCC=C(C)C | 329 µM | – |
| C=C[C@@](C)(/C=C/c1ccc(OCC(=O)Nc2ccccc2)cc1)CCC=C(C)C | 63.3 µM | – |
| C=C[C@@](C)(/C=C/c1ccc(OCc2cn(-c3ccc(F)cc3)nn2)cc1)CCC=C(C)C | 233 µM | – |
| C=C[C@@](C)(/C=C/c1ccc(OCc2cn(-c3ccc(Cl)cc3)nn2)cc1)CCC=C(C)C | 47.6 µM | – |
| C=C[C@@](C)(/C=C/c1ccc(OCC(=O)Nc2ccc(Cl)cc2)cc1)CCC=C(C)C | 50.7 µM | – |
| C=C[C@@](C)(/C=C/c1ccc(OCc2cn(Cc3ccccc3)nn2)cc1)CCC=C(C)C | 480 µM | – |
| C=C[C@@](C)(/C=C/c1ccc(OCC(=O)N2CCCCC2)cc1)CCC=C(C)C | 58.6 µM | – |
| C=C[C@@](C)(/C=C/c1ccc(OC(=O)c2ccc3ncccc3c2)cc1)CCC=C(C)C | 88 µM | – |

| SMILES | IC50 at 24 h [1] | further results |
| --- | --- | --- |
| C=C[C@@](C)(/C=C/c1ccc(OC(=O)c2cc3ccccc3[nH]2)cc1)CCC=C(C)C | 108 µM | – |
| C=C[C@@](C)(/C=C/c1ccc(OCc2cn(Cc3ccc(Cl)cc3)nn2)cc1)CCC=C(C)C | 327 µM | – |
| C=C[C@@](C)(/C=C/c1ccc(OCc2cn(-c3ccc(OC)cc3)nn2)cc1)CCC=C(C)C | 47.4 µM | – |
| C=C[C@@](C)(/C=C/c1ccc(OC(=O)c2cn(-c3ccccc3)nn2)cc1)CCC=C(C)C | 69.9 µM | – |
| C=C[C@@](C)(/C=C/c1ccc(OCC(=O)NC(c2ccc(F)cc2)P(=O)(OCC)OCC)cc1)CCC=C(C)C (stereo not given in full) | 110 µM | – |
| C=C[C@@](C)(/C=C/c1ccc(OC(=O)c2cn(-c3ccc(C)cc3)nn2)cc1)CCC=C(C)C | 37.2 µM | – |
| C=C[C@@](C)(/C=C/c1ccc(OC(=O)/C=C/c2ccccc2)cc1)CCC=C(C)C | 157 µM | – |
| C=C[C@@](C)(/C=C/c1ccc(O)cc1)CCC=C(C)C [BAKUCHIOL] | 97.2 µM | – |
| C=C[C@@](C)(/C=C/c1ccc(OC(=O)c2cn(-c3ccc(OC)cc3)nn2)cc1)CCC=C(C)C | 64.7 µM | – |
| C=C[C@@](C)(/C=C/c1ccc(OCC(=O)Nc2cccc3cccnc23)cc1)CCC=C(C)C | 649 µM | – |
| C=C[C@@](C)(/C=C/c1ccc(OCC(=O)NC(c2ccc(C)cc2)P(=O)(OCC)OCC)cc1)CCC=C(C)C (stereo not given in full) | 209 µM | – |
| C=C[C@@](C)(/C=C/c1ccc(OCc2cn(Cc3ccc(OC)cc3)nn2)cc1)CCC=C(C)C | 273 µM | – |
| C=C[C@@](C)(/C=C/c1ccc(OC(=O)c2cc3cc(Cl)ccc3[nH]2)cc1)CCC=C(C)C | 110 µM | – |
| C=C[C@@](C)(/C=C/c1ccc(OC(=O)c2cn(-c3ccc(F)cc3)nn2)cc1)CCC=C(C)C | 79.9 µM | – |
| C=C[C@@](C)(/C=C/c1ccc(OCC(=O)N2CCCC2)cc1)CCC=C(C)C | 40.5 µM | inhibition (Danio rerio [2]): Dose-Dependent Effect; inhibition (RAW264.7 [3]): Active; inhibition (Danio rerio [4]): Dose-Dependent Effect; inhibition (RAW264.7 [5]): Active; Activity (RAW264.7 [6]): Dose-Dependent Effect; inhibition (RAW264.7 [7]): Active; inhibition (RAW264.7 [8]): Active; inhibition (RAW264.7 [9]): Dose-Dependent Effect; inhibition (RAW264.7 [10]): Active; Activity (RAW264.7 [11]): Active; inhibition (RAW264.7 [12]): Dose-Dependent Effect; Activity (RAW264.7 [13]): Active; inhibition (RAW264.7 [14]): Active; Activity (RAW264.7 [15]): Dose-Dependent Effect; inhibition (RAW264.7 [16]): Dose-Dependent Effect; inhibition (RAW264.7 [17]): Dose-Dependent Effect; Activity (RAW264.7 [18]): Active; inhibition (RAW264.7 [19]): Dose-Dependent Effect; inhibition (RAW264.7 [20]): Active |
